Patent publication US20210017295A1, “BISPECIFIC BINDING AGENTS AND USES THEREOF” (MEMORIAL SLOAN KETTERING CANCER CENTER, priority 2018, published 2021)
“And” between values parts separate entries of the source, which are not always exact repeats. Identical values can stand only once.

Experiments:
Assay type in all cases: in vivo, mouse
Clinical chemistry panel = conditions: small tumors; single-cycle study, 55.5 MBq; ~85 d
[1] = Toxicity assessment: weight monitoring and removal criteria
HER2(+) BT-474 tumors = test: Biodistribution with modified BsAb / clearing agent time intervals (same-day PRIT); conditions: for average blood uptake / average tumor uptake: 24 h p.i.
Experimental: During a second set of experiments (Table 31), the BsAb timing interval was varied, as well as the timing interval between the clearing agent and ^177Lu-DOTA-Bn. All animals were sacrificed 24 hours-post-injection of ^177Lu-DOTA-Bn.

[2] = Histopathology at necropsy and pathology severity scoring; conditions: small tumors; single-cycle study; ~85 d; individual animals
[3] = medium tumors, single-cycle, 33.3 MBq, ~200 d
[4] = small tumors, single-cycle study, 55.5 MBq, ~85 d
[5] = BsAb for 4 hours, then CA vehicle only (total BsAb circulation 8 hours)
[6] = Table 30 group 3 (increased clearing agent dose)

## Nc1ccc(CC2CN(CC(=O)[O-])CCN(CC(=O)[O-])CCN(CC(=O)[O-])CCN2CC(=O)[O-])cc1.[177Lu+3] (centres unmarked) [^177Lu-DOTA-Bn]
Clinical chemistry panel
  ALT: 34 U/L and 40 U/L and 30 U/L and 45 U/L and 24 U/L
  BUN: 22 mg/dL and 21 mg/dL and 23 mg/dL and 33 mg/dL and 38 mg/dL
  CREA: 0.20 mg/dL and 0.18 mg/dL and 0.19 mg/dL and 0.30 mg/dL and 0.22 mg/dL
[1]; [3]
  animals removed: Discovered deceased: 1/5
  animals removed: Tumor burden: 4/5
  animals removed: Weight loss: 0/5
[1]; [4]
  animals removed: Discovered deceased: 0/5
  animals removed: Tumor burden: 0/5
  animals removed: Weight loss: 0/5
HER2(+) BT-474 tumors; [5]
  Tumor:Blood ratio: ~3.2
  blood uptake: 12.07 % ID/g
  tumor uptake: ~40 % ID/g
HER2(+) BT-474 tumors; Table 30 group 1
  average blood uptake: 0.06
  average tumor uptake: 11.62
HER2(+) BT-474 tumors; [6]
  average blood uptake: 0.03
  average tumor uptake: 4.14
[2]
  Histopathologic findings, Bone marrow: N
  Histopathologic findings, Kidney: N
  Histopathologic findings, Liver: N
  Histopathologic findings, Spleen: HH, 3. and N (2×)
